# Test results published in patent publication US20180030074A1, “PHOSPHONIUM COMPOUND AND PRODUCTION METHOD THEREFOR” (priority 2014, published 2018).
# Key:
# [1] = system: myocardium; assay: Mouse PET/CT imaging; assay type: in vivo, Slc:ICR mice; conditions: mice, i.v. caudal vein; for contrast of myocardial images: PET/CT 60 minutes after administration; for accumulation of radioactivity in the myocardium (PET/CT images): imaged 60 minutes after administration for 10 minutes
# Procedure: The animals used in this measurement were 6-10-week-old male Slc:ICR mice (from Japan SLC, Inc.). […] Then, the mice were fixed under isoflurane anesthesia (2%, 1.5 mL/min.), and after 60 minutes of the administration, the whole bodies of the mice were imaged by small-animal PET (ClairvivoPET produced by Shimadzu Corporation) for 10 minutes. Subsequently, while the mice were kept fixed, their whole bodies were imaged by small-animal CT (ClairvivoCT produced by Shimadzu Corporation). The PET data were reconstructed by 3D-DRAMA, and the pixel values of the obtained PET images were converted to SUV to generate SUV images. These images were fused with CT images to produce fused images.
# [2] = Rat biodistribution study; assay type: in vivo, Wistar rats; conditions: rats
# Procedure: (§1) The animals used in this measurement were 6-8-week-old male Slc:ICR mice (from Japan SLC, Inc.) (n=4). Each of different physiological saline solutions of the [^18F]-labeled compounds (200 μL, 370-740 kBq) used in this measurement was administered to the awake mice via the caudal vein, and after 60 or 120 minutes of the administration, the mice were euthanized by cervical dislocation under isoflurane anesthesia. After blood was sampled from the heart immediately, the heart, lung, liver, spleen, kidney, small intestine, thigh muscle, thigh bone, and brain were excised and measured for amount of radioactivity by a γ counter. The weights of the excised organs were measured, and on that basis, the accumulation rates per gram of the organs with respect to dose (% dose/g of organ, % ID/g) were calculated as indicators for accumulation of the chemical compounds used (n=4).
# The biodistribution study of [^18F]TAP-018 in rats was conducted by the same procedure as in Test Example 2 using 6-week-old male Wistar rats (from Japan SLC, Inc.) (n=4). The results are summarized in a bar graph (FIG. 4). […] This value is about ten times higher than the value of 1.5 for [^18F]FBnTP which has been used as a gold standard, and is sufficiently higher than the value of 9.2 for [^18F]FTPP which is currently under clinical study.
# [3] = system: myocardium; assay: Small-animal PET study in rats; assay type: in vivo, Wistar rats; conditions: i.v., PET 0 to 120 minutes
# Procedure: The myocardial imaging study of [^18F]TAP-018 in rats was conducted using 6-week-old male Wistar rats. 200 μL (7.83-9.66 MBq) of a physiological saline solution of the test compound [^18F]TAP-018 was administered via the caudal vein to the rats fixed under isoflurane anesthesia (2%, 1.5 mL/min.), and then the whole bodies of the rats were imaged by small-animal PET at time points from 0 to 120 minutes after the administration. Subsequently, while the rats were kept fixed, their whole bodies were imaged by small-animal CT. The PET data were reconstructed by 3D-DRAMA, and the pixel values of the obtained PET images were converted to SUV to generate SUV images. These images were fused with CT images to produce fused images. Further, the locations of the myocardium, lung and liver were identified based on the fused images, and regions of interest (ROI) were drawn to calculate respective SUVavg values.
# [4] = Mouse biodistribution study; assay type: in vivo, Slc:ICR mice; conditions: mice; for accumulation of labeled compound in the myocardium versus adjacent organs: i.v., 60 or 120 minutes after administration, gamma counter, n=4; for ratio of radioactivity accumulations in the myocardium and liver (heart/liver ratio): time point of 60 minutes
# Procedure: as §1
# [5] = comparison values quoted without source or species; cited from earlier work
# [6] = background statement; cited from earlier work
"accumulation in the heart ([2]; i.v., n=4)",heart/liver ratio ([2]; time point of 60 minutes),ratio of radioactivity accumulations in the myocardium and liver (heart/liver ratio) [4],Structure (SMILES),contrast of myocardial images [1],accumulation of radioactivity in the myocardium (PET/CT images) [1],accumulation of radioactivity in the heart (radioactivity-time curve) [3],disappearance of radioactivity from the liver (radioactivity-time curve) [3],accumulation of labeled compound in the myocardium versus adjacent organs [4],heart/liver ratio (comparison values of reference agents) [5],accumulation in liver relative to myocardium [6]
highly accumulated in the heart,about 15.5,9.40,"[18F]CCOc1cccc([P+](Cc2ccccc2)(c2ccccc2)c2ccccc2)c1.[Br-] [[^18F]TAP-018, Benzyl[3-(2-[^18F]fluoroethoxy)phenyl]-diphenylphosphonium bromide]",high-contrast myocardial images were obtained,accumulation of radioactivity in the myocardium was observed,a high level of radioactivity accumulated in the heart immediately after the administration,radioactivity disappeared rapidly from the liver until 10 minutes after the administration,more highly accumulates in the myocardium than in other adjacent organs,–,–
–,–,4.56,"COc1ccc(C[P+](c2ccccc2)(c2ccccc2)c2cccc(OCC[18F])c2)cc1 [[^18F]TAP-019, [3-(2-[^18F]fluoroethoxy)phenyl]-(4-methoxyphenyl)methyl-diphenylphosphonium bromide]",high-contrast myocardial images were obtained,accumulation of radioactivity in the myocardium was observed,–,–,more highly accumulates in the myocardium than in other adjacent organs,–,–
–,–,2.70,"[18F]CCOc1ccc([P+](Cc2ccccc2)(c2ccccc2)c2ccccc2)cc1 [[^18F]TAP-001, Benzyl-[4-(2-[^18F]fluoroethoxy)phenyl]-diphenylphosphonium bromide]",–,accumulation of radioactivity in the myocardium was observed,–,–,more highly accumulates in the myocardium than in other adjacent organs,–,–

# Continued, compound first:
Structure (SMILES),"accumulation in the heart ([2]; i.v., n=4)",heart/liver ratio ([2]; time point of 60 minutes),ratio of radioactivity accumulations in the myocardium and liver (heart/liver ratio) [4],contrast of myocardial images [1],accumulation of radioactivity in the myocardium (PET/CT images) [1],accumulation of radioactivity in the heart (radioactivity-time curve) [3],disappearance of radioactivity from the liver (radioactivity-time curve) [3],accumulation of labeled compound in the myocardium versus adjacent organs [4],heart/liver ratio (comparison values of reference agents) [5],accumulation in liver relative to myocardium [6]
[18F]c1ccc([P+](c2ccccc2)(c2ccccc2)c2ccccc2)cc1 [[^18F]FTPP],–,–,–,–,–,–,–,–,9.2,–
"[18F]CCOc1cccc([P+](CCCc2ccccc2)(c2ccccc2)c2ccccc2)c1.[Br-] [[^18F]TAP-022, [^18F][3-(2-fluoroethoxy)phenyl]-(3-phenylpropyl)-diphenylphosphonium bromide]",–,–,4.98,high-contrast myocardial images were obtained,accumulation of radioactivity in the myocardium was observed,–,–,more highly accumulates in the myocardium than in other adjacent organs,–,–
"[18F]c1ccc(C[P+](c2ccccc2)(c2ccccc2)c2ccccc2)cc1.[Br-] [[^18F]FBnTP, 4-[^18F]fluorobenzyl-triphenylphosphonium bromide]",–,–,–,–,–,–,–,–,1.5,accumulating not only in the myocardium but also in the liver adjacent to the myocardium to the same extent
